Literature values as cited in patent publication US7473804B2, “Polymorphs of atomoxetine hydrochloride” (Teva Pharmaceutical Fine Chemicals s.r.l., priority 2004, dated 2009).

Conditions: as disclosed in U.S. Pat. No. 4,018,895, EP 0 052 492, EP 0 721 777

CNCC[C@@H](Oc1ccccc1C)c1ccccc1 [Atomoxetine, (R)(−)-N-methyl-3-(2-methylphenoxy)-3-phenylpropylamine]
effectiveness relative to the (+)-enantiomer: about nine times more effective than the (+)-enantiomer
effectiveness relative to the racemic mixture (tomoxetine): about twice as effective as the racemic mixture
